From PMC8591608, “DNDI-6148: A Novel Benzoxaborole Preclinical Candidate for the Treatment of Visceral Leishmaniasis” (Journal of Medicinal Chemistry, 2021) come the findings set out here.

A value given as a limit tells only on which side of the number the result lay.

Series [1] in a line: PMM cytotoxicity assay. In kind it is cell-based. The note with it: mouse, primary peritoneal mouse macrophages (PMM). In outline:
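PMM (harvested 2 days after 2% potato starch peritoneal stimulation) or MRC5SV2 human lung fibroblasts at 3 × 10^4 cells/mL were exposed to compound for three days at 37 °C, 5% CO2. Viability was read by resazurin fluorescence (λex 550, λem 590 nm) after 4 h, as % growth reduction vs untreated controls.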

Series [2] is described as follows: Liver microsome stability, human. As to conditions: for microsomal CLint at 1 μM: human liver microsomes, pH 7.4, Table 5, read-out: HLM Clint. The format is in vitro ADME. In outline:
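Compounds at 1 μM incubated at 37 °C with liver microsomes (Balb/c mouse, golden Syrian hamster, Beagle dog, human) plus NADPH regenerating system in 100 mM phosphate buffer pH 7.4, 0.4 or 0.8 mg/mL protein. Samples taken from 0 up to 60, 90 or 120 min, quenched in cold methanol and analysed by LC-MS/MS.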

The test system of series [3] is L. infantum. Description: L. infantum hamster model of VL. The note with it: for reduction in parasite burden, bone marrow, 10 days / reduction in parasite burden, liver, 10 days / reduction in parasite burden, spleen, 10 days: 25 mg/kg BID p.o. for 10 days. The format is in vivo. The protocol: L. infantum (MHOM/MA/67/ITMAP263) and L. donovani (MHOM/ET/67/L82) were maintained in the golden (Syrian) hamster (Mesocricetus auratus). Ex vivo amastigotes were collected from the spleen of an infected donor hamster using two centrifugation purification steps: 230g for 10 min, keeping the supernatant layer, and 4100g for 30 min, keeping the pellet. The spleen parasite burden was assessed using the Stauber technique.[25] For in vitro assays, the inoculum was prepared in RPMI-1640 medium, supplemented with 200 mM L-glutamine, 16.5 mM NaHCO3, and 5% inactivated fetal calf serum. For the in vivo model, an infection inoculum containing 2 × 10^7 amastigotes/100 μL was prepared in phosphate-buffered saline (PBS).
Female golden hamsters for the in vivo model of visceral leishmaniasis were purchased from Janvier, France (body weight 80–100 g). This study using laboratory rodents was carried out in strict accordance with all mandatory guidelines (EU directives, including the Revised Directive 2010/63/EU on the protection of Animals used for Scientific Purposes that came into force on 01/01/2013, and the declaration of Helsinki in its latest version) and was approved by the ethical committee of the University of Antwerp, Belgium (UA-ECD 2011-74). Female golden hamsters for the pharmacokinetic study were purchased from Vital River, Beijing, China. This study was conducted following institutional review and in accordance with institutional and national guidelines at WuXi AppTec (the Institutional Animal Care and Use Committee (IACUC)). Balb/c mice for the in vivo model of visceral leishmaniasis (LSHTM) were purchased from Charles River, U.K., and related studies were conducted under license PPL 70/8427 from the U.K. Home Office.
Female golden hamsters were randomly allocated to experimental groups of six animals each, based on body weight. At the start of the experiment (Day 0), each animal was infected with L. infantum or L. donovani inoculum, delivered by intracardial injection. Six hamsters were assigned to the vehicle-treated, infected control group. Six hamsters were assigned per group (1 group/compound) for the evaluation of compound and miltefosine. […] At Day 35 (10 days after the final oral dose), all animals were euthanized and autopsies were conducted. The study evaluated the following parameters. • 1. Adverse effects: all animals were observed daily for the occurrence/presence of adverse effects. • 2. Body weight: all animals were weighed twice per week to monitor general health. • 3. Parasite burden: amastigote burdens in each target organ (liver, spleen, and bone marrow) were determined at Day 35. The organs of individual animals were weighed (except for bone marrow). Impression smears were stained with Giemsa for microscopic examination of the total amastigote burden, defined as the mean number of amastigotes per cell multiplied by the number of cells counted (minimum 500 nuclei); the results were expressed as a percentage reduction in amastigote burden compared to vehicle-treated, infected control animals.

Series [4] can be described thus: Hamster oral pharmacokinetic study. In kind it is in vivo, golden Syrian hamsters. The note with it: female, golden Syrian, plasma, single p.o. dose 50 mg/kg, read-out: AUC0–24 after single p.o. dose of 50 mg/kg. The protocol:
[…] The K2-EDTA anticoagulant was added to blood samples collected from 0.25 to 36 h, which were processed to plasma and stabilized with phosphoric acid (1% final) before analysis by LC-MS/MS. PK parameters were calculated using WinNonlin software (version 6.3).

The nature of series [5]: Liver microsome stability, dog. In kind it is in vitro ADME. As to conditions: Beagle, dog liver microsomes, pH 7.4. The protocol: Tests were performed by WuXi AppTec, China. Test compounds (at 1 μM) or positive controls (testosterone, propafenone, and diclofenac) were incubated at 37 °C with liver microsomes from Balb/c mouse, golden (Syrian) hamster, Sprague-Dawley rat, Beagle dog, or human in the presence of a NADPH regenerating system and phosphate buffer (100 mM, pH 7.4) at 0.4 or 0.8 mg/mL microsomal protein. The samples were removed at time intervals from 0 to 60, 90, or 120 min and immediately mixed with cold methanol supplemented or not with acid (3% formic acid) and centrifuged prior to analysis by LC-MS/MS using tolbutamide or propranolol as internal standards.

Series [6] deals with wild-type T. brucei trypanosomes. Description: Drug sensitivity, wild-type T. brucei. The format is cell-based. The note with it: Trypanosoma brucei. The protocol:
(§1) The clonal L. donovani cell line LdBOB (derived from MHOM/SD/62/1S-CL2D) was grown as promastigotes at 28 °C, as described previously. Bloodstream form T. brucei MiTat 1.2 clone 221a and its derived subline, 2T1, were cultured at 37 °C in the presence of 5% CO2 in HMI9-T medium, as described previously. T. brucei cell lines overexpressing CPSF3 and overexpressing a mutated version of CPSF3 (Asn232His) were generated as part of a previous study and cultured as described.[19]
(§2) Drug sensitivity assays with wild-type and transgenic T. brucei and L. donovani cell lines were carried out as previously described.[31],[32]

Series [7] concerns T. brucei trypanosomes maintaining a mutated version of CPSF3 (Asn232His). Description: Drug sensitivity, T. brucei with mutated CPSF3. In kind it is cell-based. The method, then: as §1, §2
Series [8] in a line: 14-day exploratory toxicology study in rats. The note with it: 14-day study.
Setting [9] is: Table 5, geometric mean of at least two independent tests.

Take `Cc1c(C(=O)Nc2ccc3c(c2)B(O)OC3)nnn1-c1ccccn1` [Compound 23, N-(1-Hydroxy-1,3-dihydrobenzo[c][1,2]oxaborol-6-yl)-5-methyl-1-(pyridin-2-yl)-1H-1,2,3-triazole-4-carboxamide]: the EC50 at 3 days in series [1] (Table 2, geometric mean of at least three independent assays) is more than 64 µM. For the same compound, the CC50 at 3 days in series [1] (setting [9]) was more than 64 µM. The “microsome Clint” value in series [2] (Table 10) is reported as less than 11.9 μL/min/mg protein. For the same compound, the microsomal CLint at 1 μM in series [2] was less than 11.9 µL/min/mg. In series [3] (25 mg/kg BID p.o. for 5 days), the “reduction in parasite burden, bone marrow, 5 days” value (from here on “reduction … bone marrow, 5 days”) was determined as 93.6%; the “reduction in parasite burden, liver, 5 days” value (“reduction … liver, 5 days” for short) was determined as 98.3%; the “reduction in parasite burden, spleen, 5 days” value (shortened to “reduction … spleen, 5 days”) is given as 98.2%. Besides, in series [3], the “reduction in parasite burden, bone marrow, 10 days” value was 99.4%; the “reduction in parasite burden, liver, 10 days” value is reported as 100%; the “reduction in parasite burden, spleen, 10 days” value is listed as 99.9%. In addition, in series [3] (50 mg/kg BID p.o. for 5 days), the “reduction … bone marrow, 5 days” value is listed as 99.0%; the “reduction … liver, 5 days” value turned out to be 99.8%; the “reduction … spleen, 5 days” value is reported as 99.9%. In addition, in series [4], the AUC(0-t) was determined as 120000 ng·h/mL. The compound further displayed a microsomal CLint at 1 μM in series [5] of 5.8 µL/min/mg. This compound came in with an EC50 in series [6] (Figure 2A) of 0.047 ± 0.0009 µM. In series [6] (Figure 2B), this compound had an EC50 of 0.067 ± 0.001 µM. The EC50 in series [7] (Trypanosoma brucei) came out at 0.09 ± 0.0034 µM. Moreover, the “fold less sensitive compared to wild-type” value in series [7] (bloodstream trypanosomes, CPSF3 Asn232His) came to 1.8 fold. Also, in series [8] (male and female Sprague-Dawley rats), the “no adverse effect limit” value is given as 50 mg/kg/day.
In the case of `Cc1c(-c2ccccn2)coc1C(=O)Nc1ccc2c(c1)B(O)OC2` [Compound 28, N-(1-Hydroxy-1,3-dihydrobenzo[c][1,2]oxaborol-6-yl)-3-methyl-4-(pyridin-2-yl)furan-2-carboxamide], in series [1] (setting [9]), it took 49 µM to reach half-maximal cytotoxicity (CC50 at 72 h). The CC50 at 3 days in series [1] (Table 6, geometric mean of at least two independent tests) came to 54 µM. The microsomal CLint at 1 μM in series [2] was less than 11.9 µL/min/mg. In series [3] (25 mg/kg BID p.o. for 5 days), the “reduction … bone marrow, 5 days” value stood at 95.7%; the “reduction … liver, 5 days” value amounted to 98.9%; the “reduction … spleen, 5 days” value worked out at 97.8%. In series [3], the “reduction in parasite burden, bone marrow, 10 days” value stood at 84%; the “reduction in parasite burden, liver, 10 days” value was determined as 99.4%; the “reduction in parasite burden, spleen, 10 days” value came out at 96.9%. In series [3] (50 mg/kg BID p.o. for 5 days), the “reduction … bone marrow, 5 days” value turned out to be 99.1%; the “reduction … liver, 5 days” value came to 99.9%; the “reduction … spleen, 5 days” value is listed as 99.9%. In addition, the AUC(0-t) in series [4] is 21000 ng·h/mL. In addition, in series [8] (rats, daily dosing of 25 mg/kg), the toxicity finding result is recorded as “significant multiorgan toxicity”.
